According to publication PMC5870190, “A three-in-one-bullet for oesophageal cancer: replication fork collapse, spindle attachment failure and enhanced radiosensitivity generated by a ruthenium(II) metallo-intercalator” (Chemical Science, 2017):

Columns and labels:
[1] = system: OE33 human oesophageal adenocarcinoma; assay: MTT assay, OE33 cells; type: cell-based
Description: (§1) MTT assay. OE21, FLO-1 or hSAEC1-KT cells were seeded in 96 well plates at 20,000 cells/well (for 24 h treatment) or 10,000 cells/well (for 72 h treatment) and allowed to adhere for 24 h before treatment. OE33 cells were seeded in 48 well plates at 40,000 cells/well (24 h treatment) or 20,000 cells/well (72 h treatment). Cancer cell lines were treated with chemicals dissolved in RPMI media for consistency. After incubation, 0.5 mg/ml MTT (thiazolyl blue tetrazolium bromide) dissolved in serum-free medium was added for 60 minutes and the formazan product eluted using acidified isopropanol.
(§2) The absorbance at 540 nm was quantified by plate reader (reference wavelength 650 nm). The metabolic activity of the cell population was determined as a percentage of a negative (solvent) control. […]
(§3) For the determination of mutation induction, from the untreated and each treated condition, 2x10^5 cells were plated in 10 x 100 mm dishes in selective media (regular media

[2] = system: OE21 human oesophageal squamous cell carcinoma; assay: MTT assay, OE21 cells; type: cell-based; conditions: for IC50: MTT
Description: as §1, §2, §3

OE21 cells [3] = assay: Apoptosis (AnnexinV staining, karyorrhexis, cleaved caspase 3); type: cell-based, human; conditions: OE21, 21 μM, 24 h
Description: phototoxic contribution to bio-activity. Doxorubicin (Sigma) was prepared in doubly-distilled water (10 mg/mL, 17.4 mM).
[Ru(phen)2(dppz)]2+ (2 mM) was prepared in doubly-distilled water.
Sub-cellular fractionation. OE21 or OE33 cells were treated in 12 well plates, washed with cold PBS (2x2 mls) and nuclear and cytosol fractions obtained using the Nuclei EZ Lysis kit (Sigma). Briefly, cells were washed with acidified PBS (pH 2.5) to remove the membrane-bound fraction and 0.4 ml EZ lysis buffer was added. Cells were detached by scraping, collected into eppendorfs, vortexed briefly and left for 5 minutes on ice. Samples were centrifuged (500g, 5 mins) and the supernatant (cytosol fraction) aspirated. The pellet (nuclear fraction) was re-suspended in 200 µl RIPA buffer. […] Ruthenium content was determined by ICP-MS analysis as described in a recent […]
DNA fibre assay. […] CldU- and IdU-labelled tracts were visualised using a Leica DMRB microscope with a DFC360FX camera and tract length measured by ImageJ software. […]
Western blotting. […] Protein content was determined by BCA assay. […]
AnnexinV staining. […] This was incubated for 15 mins at room temperature, 400 µl binding buffer added and analysed by flow cytometry (FL1 and FL3 channels for FITC and PI respectively). […]

OE21 cells [4] = assay: DNA fibre assay (replication fork progression); type: cell-based, human; conditions: Ru1 21 μM or dppz 7 μM during second (IdU) pulse, 30 min
Description: DNA fibre assay. The DNA fibre assay was performed as described previously.5 Briefly, OE21 cells were labelled with 30 µM CldU for 30 mins and then 250 µM IdU for an additional 30 mins. Either Ru1 (21 µM) or dppz (7 µM) was added during the second (IdU) nucleotide step (30 mins). DNA replication was terminated using ice-cold PBS and cells lysed (200 mM Tris-HCl pH 7.4, 50 mM EDTA and 0.5% SDS). DNA fibres were spread onto glass slides, fixed with methanol:acetic acid (3:1) and denatured with 2.5 M HCl. After blocking with 2% BSA, fibres were stained with anti-rat and anti-mouse 5-bromo-2′- deoxyuridine (BrdU) that specifically recognise either CldU (Abcam, dilution 1:500) or IdU (BD Sciences, 1:100). Anti-rat Cy3 (Jackson Immuno Research, 1:300) and anti-mouse Alexa-488 (Molecular Probes, 1:300) were used as the respective secondary antibodies. CldU- and IdU-labelled tracts were visualised using a Leica DMRB microscope with a DFC360FX camera and tract length measured by ImageJ software. Statistical analysis was performed by GraphPad Prism software using an unpaired t-test.
Western blotting. Treated samples were washed with cold PBS and lysed in RIPA (radioimmunoprecipitation assay) buffer containing protease inhibitors (10 μg/mL leupeptin, 2 μg/mL pepstatin, 50 μg/mL antipain, 2 μg/mL aprotinin, 20 μg/mL chyprostatin, 2 μg/mL benzamidine, 1 mM phenylmethanesulfonyl fluoride) and phosphatase inhibitors (50 mM NaF, 1 mM […]
Bis-Tris gels and LDS-PAGE. Gels were transferred onto nitrocellulose membrane and probed with primary antibodies in 5% BSA (bovine serum albumin) solutions at the following dilutions: 1/1000 dilution for majority of Cell Signaling antibodies and γH2AX. 1/500 for anti-p-ATR and anti-cleaved caspase 3. 1/200 anti-Chk1. 1/5000-1/10,000 anti- α-tubulin or β-actin.
Reactions were visualised with a suitable secondary antibody conjugated with horseradish peroxidase (1/5000 dilution, Thermo). […]

Substance: [Ru(phen)2(tpphz)]^2+ [Ru1]
- IC50 ([1]; OE33, 24 h constant exposure): 44.5 ± 3.5 µM
- IC50 ([1]; OE33, 72 h constant exposure): 27 ± 2.8 µM
- IC50 ([2]; OE21, 24 h constant exposure): 21 ± 4.2 µM
- IC50 ([2]; OE21, 72 h constant exposure): 2.9 ± 1.5 µM
- greater potency than cisplatin ([2]; OE21, 72 h incubation): two-fold
- apoptosis (OE21 cells [3]): low levels of apoptosis
- increase in completely stalled/terminated replication forks (CldU tract only) compared to mock-treated (OE21 cells [4]): 1.7 fold
